Patent publication US6274715A, “Tricyclic erythromycin derivatives” (priority 1997, dated 2001)
Values after ≈ are worked out from the molar mass of the structure shown.

Columns and labels:
Type in all cases: cell-based
[1] = test system: STAPHYLOCOCCUS AUREUS NCTC10649M; experiment: In vitro antibacterial activity, MIC, BHI agar dilution; settings: S. aureus NCTC10649M, unit assumed
[2] = test system: PSEUDOMONAS AERUGINOSA BMH10; experiment: as above; settings: P. aeruginosa BMH10, unit assumed
[3] = test system: MYCOBACTERIUM SMEGMATIS ATCC 114; experiment: as above; settings: M. smegmatis ATCC 114, unit assumed
[4] = test system: PSEUDOMONAS AERUGINOSA K799/61; experiment: as above; settings: P. aeruginosa K799/61, unit assumed
[5] = test system: ACINETOBACTER CALCOACETICUS CMX 669; experiment: as above; settings: A. calcoaceticus CMX 669, unit assumed
[6] = test system: STAPHYLOCOCCUS AUREUS CMX 553; experiment: as above; settings: S. aureus CMX 553, unit assumed
[7] = test system: STREPTOCOCCUS PYOGENES EES61; experiment: as above; settings: S. pyogenes EES61, unit assumed
[8] = test system: KLEBSIELLA PNEUMONIAE ATCC 8045; experiment: as above; settings: K. pneumoniae ATCC 8045, unit assumed
[9] = test system: STAPHYLOCOCCUS AUREUS CMX 642A; experiment: as above; settings: S. aureus CMX 642A, unit assumed
[10] = test system: STREPTOCOCCUS BOVIS A-5169; experiment: as above; settings: S. bovis A-5169, unit assumed
[11] = test system: PROVIDENCIA STUARTII CMX 640; settings: P. stuartii CMX 640; BHI agar; unit assumed
ESCHERICHIA COLI KNK 437 = settings: E. coli KNK 437; BHI agar; unit assumed
[12] = test system: STREPTOCOCCUS PYOGENES 930; experiment: In vitro antibacterial activity, MIC, BHI agar dilution; settings: S. pyogenes 930, unit assumed
[13] = test system: STREPTOCOCCUS PYOGENES PIU 2548; experiment: as above; settings: S. pyogenes PIU 2548, unit assumed
[14] = test system: PSEUDOMONAS AERUGINOSA K799/WT; experiment: as above; settings: P. aeruginosa K799/WT, unit assumed
[15] = test system: STAPHYLOCOCCUS AUREUS A5177; experiment: as above; settings: S. aureus A5177, unit assumed
ESCHERICHIA COLI H560 = experiment: as above; settings: E. coli H560, unit assumed
ESCHERICHIA COLI JUHL = settings: E. coli JUHL; BHI agar; unit assumed
[16] = test system: PSEUDOMONAS AERUGINOSA DPHD-2862; experiment: In vitro antibacterial activity, MIC, BHI agar dilution; settings: P. aeruginosa DPHD-2862, unit assumed
[17] = test system: STAPHYLOCOCCUS EPIDERMIDIS 3519; settings: S. epidermidis 3519; BHI agar; unit assumed
[18] = test system: PSEUDOMONAS AERUGINOSA DPHD-5263; experiment: In vitro antibacterial activity, MIC, BHI agar dilution; settings: P. aeruginosa DPHD-5263, unit assumed
[19] = test system: ENTEROBACTER AEROGENES ATCC 13048; experiment: as above; settings: E. aerogenes ATCC 13048, unit assumed
ESCHERICHIA COLI SS = experiment: as above; settings: E. coli SS, unit assumed
ESCHERICHIA COLI DC-2 = experiment: as above; settings: E. coli DC-2, unit assumed
CANDIDA ALBICANS CCH 442 = experiment: as above; settings: C. albicans CCH 442, unit assumed
[20] = test system: STAPHYLOCOCCUS AUREUS A-5278; experiment: as above; settings: S. aureus A-5278, unit assumed
EN[…] ATCC 8043 = experiment: as above; settings: E. faecium ATCC 8043, unit assumed
How it was run: (§1)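 MIC was read visually as the lowest drug concentration showing no growth, a slight haze or sparsely isolated colonies relative to a compound-free BHI plate. Plates held serial aqueous dilutions in BHI agar, were spot-inoculated with 1:100 (or 1:10) culture dilutions and incubated 20 to 24 hours at 35-37° C.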

M[…] ATCC 4698 = experiment: as above; settings: M. luteus ATCC 4698, unit assumed
How it was run: as §1

M[…] ATCC 9341 = experiment: as above; settings: M. luteus ATCC 9341, unit assumed
How it was run: as §1

STR[…] 508 = experiment: as above; settings: S. agalactiae CMX 508, unit assumed
How it was run: as §1

PSEUDOMONAS CEPACIA 296I = experiment: as above; settings: P. cepacia 296I, unit assumed
[21] = test system: STAPHYLOCOCCUS AUREUS 1775; experiment: as above; settings: S. aureus 1775, unit assumed
[22] = test system: STAPHYLOCOCCUS AUREUS ATCC 6538P; experiment: as above; settings: S. aureus ATCC 6538P, 35-37° C., 20 to 24 hours, unit assumed
[23] = test system: PSEUDOMONAS AERUGINOSA 5007; experiment: as above; settings: P. aeruginosa 5007, unit assumed

Question: `CCC1OC(=O)C(C)C(=O)C(C)C(OC2OC(C)CC(N(C)C)C2O)C(C)(OC)CC(C)C2=NC(CCOc3ccccc3)CN3C(=O)OC1(C)C3C2C` (centres unmarked) [Example 91] was tested. Which MIC [1] did it give?
Answer: 0.78 µg/mL (≈ 1.03 µM)

Question: And the MIC [2]?
Answer: > 100 µg/mL

Question: And the MIC [3]?
Answer: 1.56 µg/mL (≈ 2.06 µM)

Question: And the MIC [4]?
Answer: 12.5 µg/mL (≈ 16.5 µM)

Question: What about the MIC [5] of the same molecule?
Answer: > 100 µg/mL

Question: And the MIC [6]?
Answer: 0.78 µg/mL (≈ 1.03 µM)

Question: What about the MIC [7] of the same molecule?
Answer: 0.05 µg/mL (≈ 0.066 µM)

Question: And the MIC [8]?
Answer: > 100 µg/mL

Question: And the MIC [9]?
Answer: 0.78 µg/mL (≈ 1.03 µM)

Question: And the MIC [10]?
Answer: 0.01 µg/mL (≈ 0.0132 µM)

Question: What about the MIC [11] of the same molecule?
Answer: > 100 µg/mL

Question: What about the MIC (ESCHERICHIA COLI KNK 437) of the same molecule?
Answer: > 100 µg/mL

Question: And the MIC [12]?
Answer: 100 µg/mL (≈ 132 µM)

Question: What about the MIC [13] of the same molecule?
Answer: 0.39 µg/mL (≈ 0.515 µM)

Question: And the MIC [14]?
Answer: > 100 µg/mL

Question: And the MIC [15]?
Answer: 0.78 µg/mL (≈ 1.03 µM)

Question: And the MIC (ESCHERICHIA COLI H560)?
Answer: > 100 µg/mL

Question: And the MIC (ESCHERICHIA COLI JUHL)?
Answer: > 100 µg/mL

Question: What about the MIC [16] of the same molecule?
Answer: > 100 µg/mL

Question: And the MIC [17]?
Answer: 0.78 µg/mL (≈ 1.03 µM)

Question: And the MIC [18]?
Answer: > 100 µg/mL

Question: What about the MIC [19] of the same molecule?
Answer: > 100 µg/mL

Question: What about the MIC (ESCHERICHIA COLI SS) of the same molecule?
Answer: 3.1 µg/mL (≈ 4.09 µM)

Question: What about the MIC (ESCHERICHIA COLI DC-2) of the same molecule?
Answer: > 100 µg/mL

Question: And the MIC (CANDIDA ALBICANS CCH 442)?
Answer: > 100 µg/mL

Question: And the MIC [20]?
Answer: > 100 µg/mL

Question: And the MIC (EN[…] ATCC 8043)?
Answer: 0.1 µg/mL (≈ 0.132 µM)

Question: What about the MIC (M[…] ATCC 4698) of the same molecule?
Answer: 0.39 µg/mL (≈ 0.515 µM)

Question: What about the MIC (M[…] ATCC 9341) of the same molecule?
Answer: 0.1 µg/mL (≈ 0.132 µM)

Question: And the MIC (STR[…] 508)?
Answer: 0.05 µg/mL (≈ 0.066 µM)

Question: And the MIC (PSEUDOMONAS CEPACIA 296I)?
Answer: > 100 µg/mL

Question: And the MIC [21]?
Answer: > 100 µg/mL

Question: And the MIC [22]?
Answer: 0.78 µg/mL (≈ 1.03 µM)

Question: What about the MIC [23] of the same molecule?
Answer: > 100 µg/mL

Question: How did the MIC [1] turn out when `CCC1OC(=O)C(C)C(=O)C(C)C(OC2OC(C)CC(N(C)C)C2O)C(C)(OC)CC(C)C2=NC(COCc3cc(OC)cc(OC)c3)CN3C(=O)OC1(C)C3C2C` (centres unmarked) [Example 100] was run?
Answer: 0.05 µg/mL (≈ 0.0611 µM)

Question: What about the MIC [2] of the same molecule?
Answer: > 100 µg/mL

Question: And the MIC [3]?
Answer: 0.78 µg/mL (≈ 0.954 µM)

Question: And the MIC [4]?
Answer: 1.56 µg/mL (≈ 1.91 µM)

Question: And the MIC [5]?
Answer: 100 µg/mL (≈ 122 µM)

Question: And the MIC [6]?
Answer: 0.1 µg/mL (≈ 0.122 µM)

Question: What about the MIC [7] of the same molecule?
Answer: 0.01 µg/mL (≈ 0.0122 µM)

Question: And the MIC [8]?
Answer: > 100 µg/mL

Question: What about the MIC [9] of the same molecule?
Answer: 0.2 µg/mL (≈ 0.244 µM)

Question: And the MIC [10]?
Answer: 0.01 µg/mL (≈ 0.0122 µM)

Question: And the MIC [11]?
Answer: > 100 µg/mL

Question: What about the MIC (ESCHERICHIA COLI KNK 437) of the same molecule?
Answer: > 100 µg/mL

Question: And the MIC [12]?
Answer: 100 µg/mL (≈ 122 µM)

Question: And the MIC [13]?
Answer: 0.2 µg/mL (≈ 0.244 µM)

Question: And the MIC [14]?
Answer: > 100 µg/mL

Question: And the MIC [15]?
Answer: 0.1 µg/mL (≈ 0.122 µM)

Question: What about the MIC (ESCHERICHIA COLI H560) of the same molecule?
Answer: 50 µg/mL (≈ 61.1 µM)

Question: What about the MIC (ESCHERICHIA COLI JUHL) of the same molecule?
Answer: > 100 µg/mL

Question: And the MIC [16]?
Answer: > 100 µg/mL

Question: What about the MIC [17] of the same molecule?
Answer: 0.2 µg/mL (≈ 0.244 µM)

Question: And the MIC [18]?
Answer: > 100 µg/mL

Question: And the MIC [19]?
Answer: > 100 µg/mL

Question: What about the MIC (ESCHERICHIA COLI SS) of the same molecule?
Answer: 1.56 µg/mL (≈ 1.91 µM)

Question: And the MIC (ESCHERICHIA COLI DC-2)?
Answer: > 100 µg/mL

Question: And the MIC (CANDIDA ALBICANS CCH 442)?
Answer: > 100 µg/mL

Question: What about the MIC [20] of the same molecule?
Answer: > 100 µg/mL

Question: And the MIC (EN[…] ATCC 8043)?
Answer: 0.01 µg/mL (≈ 0.0122 µM)

Question: And the MIC (M[…] ATCC 4698)?
Answer: 0.1 µg/mL (≈ 0.122 µM)

Question: And the MIC (M[…] ATCC 9341)?
Answer: < 0.005 µg/mL

Question: What about the MIC (STR[…] 508) of the same molecule?
Answer: 0.01 µg/mL (≈ 0.0122 µM)

Question: What about the MIC (PSEUDOMONAS CEPACIA 296I) of the same molecule?
Answer: 100 µg/mL (≈ 122 µM)

Question: And the MIC [21]?
Answer: > 100 µg/mL

Question: And the MIC [22]?
Answer: 0.1 µg/mL (≈ 0.122 µM)

Question: And the MIC [23]?
Answer: > 100 µg/mL
